Where a name gives a salt, the structure may show the parent alone.
Assays:
[1] = In vitro rat plasma stability assay, formation of tafamidis; assay type: in vitro ADME; settings: 37° C., 2 µM test compound
Method in brief: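 Compound at 2 µM incubated in rat plasma at 37 °C, sampled at 0, 10, 30, 60, 120 min or 0, 60, 120, 180, 240 min. Protein precipitated, supernatant analyzed by LC-MS/MS, and percentage formation of tafamidis calculated per time point.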

[2] = In vitro rat liver S9 stability assay, formation of tafamidis; assay type: in vitro ADME; settings: rat liver S9, 37° C., 1 µM test compound
Protocol: The test compound was added to liver S9 and incubated at 37° C. in a water bath at a concentration of 1 µM. At each time point (0, 5, 10, 20, 30 and 60 min), stop solution (tolbutamide plus labetalol) was added to precipitate protein and mixed thoroughly. After centrifugation, an aliquot of supernatant was analyzed by LC-MS/MS. The percentage of formation of active agent was calculated at each time point.

[3] = In vivo rat PK: tafamidis in plasma, CSF and brain; set-up: species or system Male Sprague-Dawley (SD) rats; settings: for Tafamidis CSF/Plasma Ratio (iv): iv administration of test compound; for Tafamidis CSF/Plasma Ratio over 24 hrs (po): po administration of test compound
Text: For a compound provided herein to be an effective TTR stabilizer drug to halt and/or prevent the ocular and cerebral TTR amyloid deposition TTR amyloidosis, it has to be able to penetrate into the brain and CSF (surrogate for eye penetration) and deliver a sufficient amount of TTR stabilizer to stop TTR dissociation. A pharmacokinetic study in rat was used to evaluate the compounds. Male Sprague-Dawley (SD) rats (200-220 g weight) were acclimated for at least 2 to 3 days before being placed on study. All animals had access to certified rodent diet and water at libitum. Appropriate amount of the test compound was accurately weighed and mixed with appropriate volume of vehicle (such as DMSO/sterile water for iv dosing or 0.5% methylcellulose homogenous suspension or solution for oral administration or as a solution in a mixture NMP/PEG400/solutol/water) to administer a dose of 2, 5 or 10 mg/kg. For IV dosing the test compound was administered via tail vein or indwelling cannula. For oral dosing, the test compound was administered by oral gavage. Blood and CSF samples were collected at selected timepoints. Blood collection was performed from saphenous vein or tail vein of each animal into polypropylene tubes at each timepoint. All blood samples were transferred into EDTA-K2 tubes and centrifuged for 15 minutes at 4° C. for plasma collection. Plasma samples were kept at -80° C. until LC/MSMS analysis. CSF was collected from cisterna magna at each timepoint and quick frozen over dry ice and kept at -80° C. until LC/MSMS analysis. Brains were harvested immediately after the terminal bleeding (~ 24 hrs post dosing). The blood of the brain was perfused with normal saline. The brain was quickly picked and placed into centrifuge tube. The weight of brain samples was recorded. 4-Fold homogenization solution (MeOH/15 mM PBS (1:2)) was added into the tube according to the weighed samples. The brain was homogenized using a Polytron (3 strokes or more until homogenous, each 30 seconds) on wet ice. The samples were quick frozen over dry ice and kept at -80° C. until LC/MSMS analysis. Using a LC-MSMS method for the quantitative determination of test compound in biological matrixes, amount of test compound and active agent were measured in plasma and CSF at selected timepoints post-dosing and in brain at 24 hrs post dosing. Plasma concentration versus time data was analyzed by non-compartmental approaches using the Phoenix WinNonlin 6.3 software program. As reference, an oral dose of 2 mg/kg of tafamidis gave a CSF to plasma ratio over 24 hrs around 0.01 and a brain to plasma ratio at 24 hrs around 0.02.

SMILES | Formation of tafamidis at 120 min [1] | Formation of tafamidis at 60 min [2] | Tafamidis CSF/Plasma Ratio (iv) [3] | Tafamidis CSF/Plasma Ratio over 24 hrs (po) [3]
O=C(OC1CCNCC1)c1ccc2nc(-c3cc(Cl)cc(Cl)c3)oc2c1 [Compound 13, hydrochloride] | A (A is <25%) | A (A is <25%) | B (B is ≥0.015 to <0.02) | B (B is ≥0.015 to <0.02)
CN1C[C@H](OC(=O)c2ccc3nc(-c4cc(Cl)cc(Cl)c4)oc3c2)[C@@H](O)C1 [Compound 57, (3S,4S)-4-hydroxy-1-methylpyrrolidin-3-yl 2-(3,5-dichlorophenyl)benzo[d] oxazole-6-carboxylate] | B (B is ≥25 to <50%) | B (B is ≥25 to <50%) | B (B is ≥0.015 to <0.02) | –
O=C(OCCCn1ccnc1)c1ccc2nc(-c3cc(Cl)cc(Cl)c3)oc2c1 [Compound 117] | B (B is ≥25 to <50%) | D (D is ≥75%) | – | B (B is ≥0.015 to <0.02)
CC(OC(=O)c1ccc2nc(-c3cc(Cl)cc(Cl)c3)oc2c1)c1ccn(C)n1 (stereo not drawn) [Compound 160] | C (C is ≥50 to <75%) | C (C is ≥50 to <75%) | – | A (A is < 0.015)
CCN(CC)CCCOC(=O)c1ccc2nc(-c3cc(Cl)cc(Cl)c3)oc2c1 [Compound 38, 3-(diethylamino)propyl 2-(3,5-dichlorophenyl)benzo[d] oxazole-6-carboxylate] | B (B is ≥25 to <50%) | A (A is <25%) | B (B is ≥0.015 to <0.02) | B (B is ≥0.015 to <0.02)
Cn1ccc(COC(=O)c2ccc3nc(-c4cc(Cl)cc(Cl)c4)oc3c2)n1 [Compound 90] | A (A is <25%) | D (D is ≥75%) | – | A (A is < 0.015)
CC(CN(C)C)OC(=O)c1ccc2nc(-c3cc(Cl)cc(Cl)c3)oc2c1 (single isomer, unassigned) [Compound 46, (S*)-1-(dimethylamino)propan-2-yl 2-(3,5-dichlorophenyl)benzo[d]oxazole-6-carboxylate] | B (B is ≥25 to <50%) | A (A is <25%) | C (C is ≥0.02) | A (A is < 0.015)
CCN(CC)CCOC(=O)c1ccc2nc(-c3cc(Cl)cc(Cl)c3)oc2c1 [Compound 35, 2-(diethylamino)ethyl 2-(3,5-dichlorophenyl)benzo[d]oxazole-6-carboxylate hydrochloride] | C (C is ≥50 to <75%) | B (B is ≥25 to <50%) | B (B is ≥0.015 to <0.02) | –
O=C(NCCF)c1ccc2nc(-c3cc(Cl)cc(Cl)c3)oc2c1 [Compound 88] | A (A is <25%) | A (A is <25%) | – | A (A is < 0.015)
CC(OC(=O)c1ccc2nc(-c3cc(Cl)cc(Cl)c3)oc2c1)C1CCOC1 (stereo not drawn) [Compound 161] | B (B is ≥25 to <50%) | B (B is ≥25 to <50%) | – | A (A is < 0.015)
O=C(c1ccc2nc(-c3cc(Cl)cc(Cl)c3)oc2c1)N1CCNCC1 [Compound 145] | A (A is <25%) | A (A is <25%) | – | B (B is ≥0.015 to <0.02)
O=C(OCCCN1CCCCC1)c1ccc2nc(-c3cc(Cl)cc(Cl)c3)oc2c1 [Compound 41, 3-(piperidin-1-yl)propyl 2-(3,5-dichlorophenyl)benzo[d] oxazole-6-carboxylate] | C (C is ≥50 to <75%) | A (A is <25%) | C (C is ≥0.02) | A (A is < 0.015)
O=C(OC1CCn2cncc21)c1ccc2nc(-c3cc(Cl)cc(Cl)c3)oc2c1 (stereo not drawn) [Compound 156, 6,7-dihydro-5H-pyrrolo[1,2-c]imidazol-7-yl 2-(3,5-dichlorophenyl)-benzo[d]oxazole-6-carboxylate] | D (D is ≥75%) | C (C is ≥50 to <75%) | – | B (B is ≥0.015 to <0.02)
O=C(OCCCN1CCC1)c1ccc2nc(-c3cc(Cl)cc(Cl)c3)oc2c1 [Compound 39, 3-(azetidin-1-yl)propyl 2-(3,5-dichlorophenyl)benzo[d] oxazole-6-carboxylate] | A (A is <25%) | A (A is <25%) | B (B is ≥0.015 to <0.02) | –
O=C(OCCCN1CCCC1)c1ccc2nc(-c3cc(Cl)cc(Cl)c3)oc2c1 [Compound 40, 3-(pyrrolidin-1-yl)propyl 2-(3,5-dichlorophenyl)benzo[d] oxazole-6-carboxylate] | B (B is ≥25 to <50%) | A (A is <25%) | B (B is ≥0.015 to <0.02) | –

The remaining lines, values ahead:

Formation of tafamidis at 120 min [1] | Formation of tafamidis at 60 min [2] | Tafamidis CSF/Plasma Ratio (iv) [3] | Tafamidis CSF/Plasma Ratio over 24 hrs (po) [3] | SMILES
C (C is ≥50 to <75%) | C (C is ≥50 to <75%) | – | A (A is < 0.015) | O=C(OC1CCCN(CC(F)F)C1)c1ccc2nc(-c3cc(Cl)cc(Cl)c3)oc2c1 (stereo not drawn) [Compound 167, 1-(2,2-difluoroethyl)piperidin-3-yl 2-(3,5-dichlorophenyl)benzo[d]oxazole-6-carboxylate]
A (A is <25%) | D (D is ≥75%) | – | B (B is ≥0.015 to <0.02) | O=C(OC1CCN(CC(F)(F)F)C1)c1ccc2nc(-c3cc(Cl)cc(Cl)c3)oc2c1 (stereo not drawn) [Compound 151]
A (A is <25%) | B (B is ≥25 to <50%) | – | A (A is < 0.015) | CS(=O)(=O)N1CCC(OC(=O)c2ccc3nc(-c4cc(Cl)cc(Cl)c4)oc3c2)C1 (stereo not drawn) [Compound 139]
D (D is ≥75%) | A (A is <25%) | C (C is ≥0.02) | C (C is ≥0.02) | CN1CCC(OC(=O)c2ccc3nc(-c4cc(Cl)cc(Cl)c4)oc3c2)C1 (stereo not drawn) [Compound 7, 1-methylpyrrolidin-3-yl 2-(3,5-dichlorophenyl)benzo[d]oxazole-6-carboxylate]
B (B is ≥25 to <50%) | A (A is <25%) | – | B (B is ≥0.015 to <0.02) | CC(C)N1CCC(OC(=O)c2ccc3nc(-c4cc(Cl)cc(Cl)c4)oc3c2)C1 (stereo not drawn) [Compound 75]
C (C is ≥50 to <75%) | B (B is ≥25 to <50%) | – | A (A is < 0.015) | CCN1CCCC(OC(=O)c2ccc3nc(-c4cc(Cl)cc(Cl)c4)oc3c2)C1 (stereo not drawn) [Compound 163]
D (D is ≥75%) | A (A is <25%) | – | A (A is < 0.015) | CN1CC[C@H](OC(=O)c2ccc3nc(-c4cc(Cl)cc(Cl)c4)oc3c2)C1 [Compound 58, (S)-1-methylpyrrolidin-3-yl 2-(3,5-dichlorophenyl)benzo[d] oxazole-6-carboxylate hydrochloride]
A (A is <25%) | A (A is <25%) | B (B is ≥0.015 to <0.02) | A (A is < 0.015) | CN1CCC(OC(=O)c2ccc3nc(-c4cc(Cl)cc(Cl)c4)oc3c2)CC1 [Compound 11]

Source: patent US20230287021A1, “COMPOUNDS, COMPOSITIONS AND METHODS FOR STABILIZING TRANSTHYRETIN AND INHIBITING TRANSTHYRETIN MISFOLDING” (Protego Biopharma, Inc., priority 2020, published 2023)
